# Patent US11261184B2, “[1,6]naphthyridine compounds and derivatives as CDK8/CDK19 inhibitors” (Boehringer Ingelheim International GmbH, priority 2017, dated 2022)
# Legend:
# CDK8/cyclin C = CDK8/cyclin C (Homo sapiens (Human), UniProt P49336); test: CDK8 biochemical assay (TR-FRET Kinase Tracer 236 displacement); assay type: binding; details: 5 nM CDK8/cyclin C, 10 nM Kinase Tracer 236, 60 min
# Procedure: This assay is used to identify compounds which competitively interact with the binding pocket of the CDK8 kinase.
# Assay-ready plates (ARPs; Proxiplate-384 PLUS, white, PerkinElmer) with compound solution in 100% DMSO are generated on an Access Labcyte Workstation with the Labcyte Echo 55x. 150 nL of compound solution are transferred per well in 11 concentrations in duplicates with serial 1:5 dilutions. The final DMSO concentration in the assay is 1%.
# 5 nM (final assay concentration) CDK8/cyclin C, 2 nM (final assay concentration) Biotin anti-His Tag Antibody and 2 nM (final assay concentration) LanthaScreen Eu-Streptavidin are mixed in assay buffer (50 mM HEPES pH 7.3, 10 mM MgCl2, 1 mM EGTA, 0.01% Brij-35, 0.05% BSA, 1 mM DTT) prior to use and kept at room temperature.
# The assay runs on a fully automated robotic system. 10 μL of CDK8/cyclin C, Biotin anti-His Tag Antibody and LanthaScreen Eu-Streptavidin mix are dispensed into columns 1-24. 5 μL of 10 nM (final assay concentration) Kinase Tracer 236 solution in assay buffer are added to columns 1-23, 5 μL of assay buffer into column 24. Plates are kept at room temperature in a darkened incubator. After 60 min incubation time the signal is measured in a PerkinElmer Envision HTS Multilabel Reader using the TR-FRET specs from PerkinElmer.
# Each plate contains 16 wells of a negative control (diluted DMSO instead of test compound; CDK8/cyclin C, Biotin anti-His Tag Antibody and LanthaScreen Eu-Streptavidin mix w Kinase Tracer 236; column 23) and 16 wells of a positive control (diluted DMSO instead of test compound; CDK8/cyclin C, Biotin anti-His Tag Antibody and LanthaScreen Eu-Streptavidin mix w/o Kinase Tracer 236; column 24). A known inhibitor of CDK8/cyclin C binding is used as internal control. IC50 values are calculated and analyzed in the MEGALAB IC50 application using a 4 parametric logistic model.
# Table 4 includes IC50 values of example compounds determined using the above assay.
# [1] = Metabolic (microsomal) stability assay, mouse liver microsomes; assay type: in vitro ADME; details: predicted clearance as percent of liver blood flow; mouse liver microsomes 0.5 mg/mL, 1 μM compound, 37° C.
# Procedure: (§1) Metabolic (Microsomal) Stability Assay
# (§2) The metabolic degradation of the test compound is assayed at 37° C. with pooled liver microsomes (mouse (MLM), rat (RLM) or human (HLM)). The final incubation volume of 74 μL per time point contains TRIS buffer (pH 7.5; 0.1 M), magnesium chloride (6.5 mM), microsomal protein (0.5 mg/mL for mouse/rat, 1 mg/mL for human specimens) and the test compound at a final concentration of 1 μM. Following a short preincubation period at 37° C., the reactions are initiated by addition of 8 μL beta-nicotinamide adenine dinucleotide phosphate, reduced form (NADPH, 10 mM) and terminated by transferring an aliquot into solvent after different time points. Additionally, the NADPH-independent degradation is monitored in incubations without NADPH, terminated at the last time point by addition of acetonitril. The quenched incubations are pelleted by centrifugation (1811 g, 5 min). An aliquot of the supernatant is assayed by LC-MS/MS for the amount of parent compound.
# (§3) In vitro intrinsic clearance (CLint,in vitro) is calculated from the time course of the disappearance of the test drug during the microsomal incubation. Each plot is fitted to the first-order elimination rate constant as C(t)=C0*exp(−ke*t), where C(t) and C0 are the concentration of unchanged test drug at incubation time t and that at preincubation and ke is the disappearance rate constant of the unchanged drug. Subsequently, CLint,in vitro (μL·min^−1·amount protein) values are converted to CLint,in vitro (mL·min^−1·kg^−1) for the whole body. CLint,in vitro data are scaled up using physiological parameters. For better across species comparison the predicted clearance is expressed as percent of the liver blood flow [% QH] in the individual species. In general high stability (corresponding to low % QH) of the compounds across species is desired.
# [2] = Metabolic (microsomal) stability assay, rat liver microsomes; assay type: in vitro ADME; details: predicted clearance as percent of liver blood flow; rat liver microsomes 0.5 mg/mL, 1 μM compound, 37° C.
# Procedure: as §1, §2, §3
# [3] = Metabolic (microsomal) stability assay, human liver microsomes; assay type: in vitro ADME; details: predicted clearance as percent of liver blood flow; human liver microsomes 1 mg/mL, 1 μM compound, 37° C.
# Procedure: as §1, §2, §3
# CDK8/cyclin C, sequence (P49336 whole entry): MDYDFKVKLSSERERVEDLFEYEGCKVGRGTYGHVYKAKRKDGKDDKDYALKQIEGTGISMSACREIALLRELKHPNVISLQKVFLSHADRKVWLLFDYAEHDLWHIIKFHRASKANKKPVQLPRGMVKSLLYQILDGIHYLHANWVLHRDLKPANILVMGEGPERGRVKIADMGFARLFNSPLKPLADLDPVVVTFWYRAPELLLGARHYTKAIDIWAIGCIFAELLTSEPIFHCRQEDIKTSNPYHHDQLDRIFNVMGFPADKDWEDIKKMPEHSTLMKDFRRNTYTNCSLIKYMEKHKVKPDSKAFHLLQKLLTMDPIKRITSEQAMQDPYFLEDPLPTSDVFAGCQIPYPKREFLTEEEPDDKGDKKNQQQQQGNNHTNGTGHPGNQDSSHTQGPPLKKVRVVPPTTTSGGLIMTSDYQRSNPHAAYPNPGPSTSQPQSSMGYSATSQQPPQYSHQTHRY
# CDK8/cyclin C, sequence (P24863 whole entry partner): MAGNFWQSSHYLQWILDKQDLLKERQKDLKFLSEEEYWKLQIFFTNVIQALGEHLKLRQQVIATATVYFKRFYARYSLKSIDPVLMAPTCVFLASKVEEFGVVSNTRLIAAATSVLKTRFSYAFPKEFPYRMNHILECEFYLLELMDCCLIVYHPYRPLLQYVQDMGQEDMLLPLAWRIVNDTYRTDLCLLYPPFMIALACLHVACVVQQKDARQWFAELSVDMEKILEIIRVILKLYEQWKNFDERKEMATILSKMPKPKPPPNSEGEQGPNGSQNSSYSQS
Compound,IC50 (CDK8/cyclin C) [nM],MLM [% QH] [1] [% QH],RLM [% QH] [2] [% QH],HLM [% QH] [3] [% QH]
c1cc2nccc(Oc3ccc(N4CCCC4)cc3)c2cn1 [I-001],3.6,,,
Fc1cncc2c(Oc3ccc(N4CCCC4)cc3)ccnc12 [I-002],3.4,,,
Clc1cncc2c(Oc3ccc(N4CCCC4)cc3)ccnc12 [I-003],2.4,,,
Cc1cncc2c(Oc3ccc(N4CCCC4)cc3)ccnc12 [I-004],3.7,,,
Cc1nccc2nccc(Oc3ccc(N4CCCC4)cc3)c12 [I-005],11.2,,,
CN(C)C(=O)[C@H]1CCN(c2ccc(Oc3ccnc4ccncc34)cc2)C1 [I-006],1.6,,,
CN(C)C(=O)[C@H]1CCN(c2ccc(Oc3ccnc4c(Cl)cncc34)cc2)C1 [I-007],1.3,49,66,<24
CN(CCO)C(=O)[C@H]1CCN(c2ccc(Oc3ccnc4c(Cl)cncc34)cc2)C1 [I-010],1.3,57,,50
COCCN(C)C(=O)[C@H]1CCN(c2ccc(Oc3ccnc4c(Cl)cncc34)cc2)C1 [I-011],1.5,,,
CN1CCN(C(=O)[C@H]2CCN(c3ccc(Oc4ccnc5c(Cl)cncc45)cc3)C2)CC1 [I-012],1.3,,,
O=C([C@H]1CCN(c2ccc(Oc3ccnc4c(Cl)cncc34)cc2)C1)N1CCOCC1 [I-013],1.2,59,,44
Cc1cncc2c(Oc3ccc(N4CC[C@H](C(=O)N(C)C)C4)cc3)ccnc12 [I-014],1.7,,,
CN(C)C(=O)[C@H]1CCN(c2ccc(Oc3ccnc4c(F)cncc34)cc2)C1 [I-015],1.5,<24,43,<24
CN1CCN(C(=O)[C@H]2CCN(c3ccc(Oc4ccnc5c(F)cncc45)cc3)C2)CC1 [I-016],1.2,,,
"CN(CCO)C(=O)[C@H]1CCN(c2ccc(Oc3ccnc4c(F)cncc34)cc2)C1 [I-017, (S)-1-[4-(8-fluoro-[1,6]naphthyridin-4-yloxy)-phenyl]-pyrrolidine-3-carboxylic acid (2-hydroxy-ethyl)-methyl-amide]",1.8,<24,24,<24
CN(C)C(=O)[C@@H]1CCN(c2ccc(Oc3ccnc4c(Cl)cncc34)cc2)C1 [I-018],1.2,44,55,30
CN(C)C(=O)[C@@H]1CCN(c2ccc(Oc3ccnc4c(F)cncc34)cc2)C1 [I-019],1.7,28,41,<24
CN(CCO)C(=O)[C@@H]1CCN(c2ccc(Oc3ccnc4c(F)cncc34)cc2)C1 [I-020],1.4,<24,<24,<24
CN1CCN(C(=O)[C@@H]2CCN(c3ccc(Oc4ccnc5c(F)cncc45)cc3)C2)CC1 [I-021],< 1,,,
N[C@H]1CCN(c2ccc(Oc3ccnc4c(F)cncc34)cc2)C1 [I-022],8.3,<24,<24,<24

Compound,IC50 (CDK8/cyclin C) [nM],MLM [% QH] [1] [% QH],RLM [% QH] [2] [% QH],HLM [% QH] [3] [% QH]
CC(=O)N[C@H]1CCN(c2ccc(Oc3ccnc4c(F)cncc34)cc2)C1 [I-023],2.1,<24,<24,<24
CC(=O)N(C)[C@H]1CCN(c2ccc(Oc3ccnc4c(F)cncc34)cc2)C1 [I-024],1.4,<24,<24,<24
O=C1CCCN1[C@H]1CCN(c2ccc(Oc3ccnc4c(F)cncc34)cc2)C1 [I-025],1.6,,,
CC(=O)N[C@@H]1CCN(c2ccc(Oc3ccnc4c(F)cncc34)cc2)C1 [I-026],2.9,<24,25,<24
CC(=O)N1CCN(c2ccc(Oc3cc(N(C)C)nc4ccncc34)cc2)CC1 [I-027],4.5,,,
CN1CCN(c2ccc(Oc3ccnc4ccncc34)cc2)CC1 [I-028],11.1,,,
Fc1cncc2c(Oc3ccc(N4CCn5ccnc5C4)cc3)ccnc12 [I-029],16.6,36,57,29
c1cc2nccc(Oc3ccc(N4CCOCC4)cc3)c2cn1 [I-030],14,58,60,<24
CC(=O)N1CCN(c2ccc(Oc3ccnc4ccncc34)cc2)CC1 [I-031],4.7,42,29,28
CN(C)C(=O)C1CN(c2ccc(Oc3ccnc4c(F)cncc34)cc2)C1 [I-032],2.1,<24,<24,27
CC(=O)NC1CN(c2ccc(Oc3ccnc4c(F)cncc34)cc2)C1 [I-033],3.9,,,
COc1cc(Oc2ccc(N3CCN(C(C)=O)CC3)cc2)c2cnccc2n1 [I-034],14,,,
CN1CCC(COc2ccc(Oc3ccnc4c(F)cncc34)cc2)C1=O (centres unmarked) [I-035],3.7,<24,35,<24
CN(C)C(=O)CCOc1ccc(Oc2ccnc3c(F)cncc23)cc1 [I-036],4.8,<24,32,<24
O=C1CCCN1CCOc1ccc(Oc2ccnc3c(F)cncc23)cc1 [I-037],27,<24,47,<24
CC(=O)N(C)CCOc1ccc(Oc2ccnc3c(F)cncc23)cc1 [I-038],6.6,,,
"CN(C)C(=O)Cn1cc(-c2ccc(Oc3ccnc4c(F)cncc34)cc2)cn1 [I-039, 2-{4-[4-(8-fluoro-[1,6]naphthyridin-4-yloxy)-phenyl]-pyrazol-1-yl}-N,N-dimethyl-acetamide]",2.5,26,<24,<24
CN(C)C(=O)Cn1cc(-c2ccc(Oc3ccnc4ccncc34)cc2)cn1 [I-040],2.6,45,32,27
Cc1cncc2c(Oc3ccc(-c4cnn(CC(=O)N(C)C)c4)cc3)ccnc12 [I-041],5,,,
CN(C)C(=O)Cn1cc(-c2ccc(Oc3ccnc4c(Cl)cncc34)cc2)cn1 [I-043],2.7,25,42,<24
